Counter-ions that a name gives are not always drawn. Like-named read-outs stand apart in the source and are kept apart here.
Assays:
HER2 = molecular target: T1, HER2 (Homo sapiens, UniProt P04626); assay: HER2 occupancy assay in N87 cells; type: cell-based; settings: concentration at which 50% of HER2 is irreversible bound, read-out: N87 HER2 Occ
T1 construct: BT474 and N87 cell lines which endogenously overexpress the HER2 wildtype (WT) protein; endogenous in cells; host or cells: BT474, N87
Description: In order to assess free HER2 protein, a biotinylated probe was utilized. BT474, N87, and Ba/F3-HER2YVMA cells were treated with test compound as described for HER2 signaling. After compound treatment, cells were washed three times with cold phosphate buffer saline (PBS, Life Technologies, Carlsbad, CA), and lysed in modified occupancy lysis buffer prepared with an irreversible biotinylated tool compound (1 μM) in 25 mM Tris pH 7.5, 150 mM NaCl, 1% Triton, and supplemented with cOmplete, EDTA-free Protease inhibitor cocktail (Roche), Phosphatase Inhibitor Cocktails 2 and 3 (Sigma-Aldrich), and 1 mM PMSF (Sigma-Aldrich).
To determine % occupancy, lysates were loaded into duplicate plates of the phospho (Tyr1248)/total ErbB2 whole cell lysate MSD kit (Meso-Scale Discovery) and incubated overnight. Plates were washed and incubation with either HER2-sulfoTag (1:50, Meso Scale Discovery) or Strep-Sulfo Tag (1:1000, Meso Scale Discovery), for detection of […]. A standard curve of untreated cells in serial dilution was included in each plate to independently fit streptavidin (Free HER2) and total HER2 MSD signals; non-specific signal (BSA control spots) was subtracted from each well. Free HER2 was then normalized by total HER2 for each sample. The results are reported as % DMSO control. The normalized data was fitted using a sigmoidal curve analysis program (Graph Pad Prism version 6) with variable Hill slope to determine EC50 values. The results are provided in Table 4, under columns titled “BT474-HER2 Occ”, “N87-HER2 Occ”, and “Ba/F3 YVMA-HER2 Occ”. HER2 Occ is the concentration of test compound at which 50% of HER2 is irreversible bound.

EGFR = EGFR (Homo sapiens, UniProt P00533); assay: EGFR occupancy in N87 cells; type: cell-based; design: endogenous in cells; host or cells: N87
Description: In order to assess free EGFR protein, a biotinylated probe was utilized as described for HER2 occupancy. N87 cells were plated, treated, and lysed as described for HER2 occupancy method. After treatment, the cells were washed three times with cold PBS, lysed at room temperature for 1 hr in modified occupancy lysis buffer (prepared as described in section titled “HER2 Occupancy Assay”). Lysates were stored at −70° C. until further analysis. For determination of % occupancy, lysates were loaded into duplicate plates of the phospho (Tyr 1068)/total EGFR whole cell lysate kit (Meso-Scale Discovery) and incubated overnight. Plates were washed and incubated with either EGFR-sulfoTag (1:50, Meso Scale Discovery) or Strep-Sulfo Tag (1:1000, Meso Scale Discovery), for detection of free and total EGFR, respectively. BSA control spots included in MSD plates were used to subtract non-specific signal. A standard curve of untreated cells in serial dilution was included in each plate to convert streptavidin and total EGFR MSD signals into free EGFR and total EGFR. Free EGFR was normalized to total EGFR for each sample. Data, reported as % […] control, was fitted using a sigmoidal curve analysis program (Graph Pad Prism version 6) with variable Hill slope to determine EC50 values. The results are provided in Table 4, under column titled “N87-EGFR Occ”. EGFR Occ is the concentration of test compound at which 50% of EGFR is irreversible bound.

[1] = N87 cells, concentration at which 50% of EGFR is irreversible bound, read-out: N87 EGFR Occ

EGFR, sequence (P00533 25-1210): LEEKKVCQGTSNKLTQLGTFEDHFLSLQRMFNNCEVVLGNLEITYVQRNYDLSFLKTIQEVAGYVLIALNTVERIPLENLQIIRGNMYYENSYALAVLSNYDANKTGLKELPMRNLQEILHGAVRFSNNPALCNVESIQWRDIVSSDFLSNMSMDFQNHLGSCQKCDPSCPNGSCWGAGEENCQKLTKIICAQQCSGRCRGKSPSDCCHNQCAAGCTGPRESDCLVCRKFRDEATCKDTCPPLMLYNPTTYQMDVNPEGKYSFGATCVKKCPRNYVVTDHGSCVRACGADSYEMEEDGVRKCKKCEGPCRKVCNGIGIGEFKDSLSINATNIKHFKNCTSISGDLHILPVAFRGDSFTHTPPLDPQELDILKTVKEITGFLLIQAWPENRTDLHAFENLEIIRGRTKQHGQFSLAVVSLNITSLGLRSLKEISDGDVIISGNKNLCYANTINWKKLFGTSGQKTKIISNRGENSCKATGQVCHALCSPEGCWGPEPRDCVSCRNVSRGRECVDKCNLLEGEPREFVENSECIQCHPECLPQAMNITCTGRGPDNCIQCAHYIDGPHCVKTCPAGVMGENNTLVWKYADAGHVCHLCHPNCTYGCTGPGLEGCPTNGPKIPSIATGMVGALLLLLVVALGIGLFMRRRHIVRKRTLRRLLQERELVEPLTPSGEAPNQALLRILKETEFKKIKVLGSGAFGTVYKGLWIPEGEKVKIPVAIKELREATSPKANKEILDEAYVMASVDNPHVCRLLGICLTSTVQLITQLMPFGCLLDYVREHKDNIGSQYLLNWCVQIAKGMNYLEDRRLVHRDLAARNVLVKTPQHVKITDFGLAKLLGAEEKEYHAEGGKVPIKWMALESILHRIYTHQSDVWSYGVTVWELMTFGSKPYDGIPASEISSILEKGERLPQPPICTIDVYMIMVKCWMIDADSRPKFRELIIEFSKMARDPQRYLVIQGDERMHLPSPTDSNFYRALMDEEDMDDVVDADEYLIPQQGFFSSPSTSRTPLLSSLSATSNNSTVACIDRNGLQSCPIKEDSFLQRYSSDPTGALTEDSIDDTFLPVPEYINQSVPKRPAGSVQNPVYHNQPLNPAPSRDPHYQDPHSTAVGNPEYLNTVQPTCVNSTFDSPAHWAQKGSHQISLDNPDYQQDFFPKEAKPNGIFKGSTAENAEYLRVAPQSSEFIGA
T1 sequence (P04626 23-1255): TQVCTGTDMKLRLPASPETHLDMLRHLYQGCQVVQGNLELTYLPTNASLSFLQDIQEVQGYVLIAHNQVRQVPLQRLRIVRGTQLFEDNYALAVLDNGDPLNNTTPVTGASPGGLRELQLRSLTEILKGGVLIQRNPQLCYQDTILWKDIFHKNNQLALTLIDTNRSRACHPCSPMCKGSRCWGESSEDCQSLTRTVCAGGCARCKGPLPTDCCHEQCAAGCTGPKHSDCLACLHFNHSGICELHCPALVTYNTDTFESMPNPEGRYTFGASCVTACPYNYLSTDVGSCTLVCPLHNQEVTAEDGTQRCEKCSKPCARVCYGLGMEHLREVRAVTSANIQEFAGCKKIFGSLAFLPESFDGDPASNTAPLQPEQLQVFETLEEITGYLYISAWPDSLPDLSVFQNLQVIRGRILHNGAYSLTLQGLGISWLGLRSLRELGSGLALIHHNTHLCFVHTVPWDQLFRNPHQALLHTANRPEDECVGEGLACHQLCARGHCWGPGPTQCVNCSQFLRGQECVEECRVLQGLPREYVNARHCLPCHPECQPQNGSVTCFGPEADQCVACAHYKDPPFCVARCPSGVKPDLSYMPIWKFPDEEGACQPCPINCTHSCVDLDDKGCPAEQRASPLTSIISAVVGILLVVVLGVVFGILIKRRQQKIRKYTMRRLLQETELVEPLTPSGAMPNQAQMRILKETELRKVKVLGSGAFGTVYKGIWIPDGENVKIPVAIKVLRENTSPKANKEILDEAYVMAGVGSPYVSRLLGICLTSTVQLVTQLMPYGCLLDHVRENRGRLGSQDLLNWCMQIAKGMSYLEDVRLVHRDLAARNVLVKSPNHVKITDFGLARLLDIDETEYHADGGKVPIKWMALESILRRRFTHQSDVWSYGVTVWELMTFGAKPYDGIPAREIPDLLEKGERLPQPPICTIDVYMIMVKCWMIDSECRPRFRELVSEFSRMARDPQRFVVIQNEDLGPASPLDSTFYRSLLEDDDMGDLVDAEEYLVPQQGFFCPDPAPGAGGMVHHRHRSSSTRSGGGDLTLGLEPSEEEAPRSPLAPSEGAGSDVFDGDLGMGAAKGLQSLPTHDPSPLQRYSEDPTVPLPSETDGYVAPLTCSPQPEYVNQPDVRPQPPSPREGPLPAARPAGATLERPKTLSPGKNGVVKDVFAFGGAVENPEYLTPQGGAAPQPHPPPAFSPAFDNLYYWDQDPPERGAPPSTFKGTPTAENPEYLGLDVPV

Structure (SMILES) | EC50 (EGFR; [1]) [µM] | EC50 (HER2) [µM] | EC50 (EGFR) [µM]
Cc1ccc(Oc2ccc(Nc3ncnc4sc5c(c34)CCN(C(=O)/C=C/CN3CC4CCC(C4)C3)C5)cc2C)cn1 [Compound 16, (E)-4-(3-azabicyclo[3.2.1]octan-3-yl)-1-(4-((3-methyl-4-((6-methylpyridin-3-yl)oxy)phenyl)amino)-5,8-dihydropyrido[4′,3′:4,5]thieno[2,3-d]pyrimidin-7(6H)-yl)but-2-en-1-one benzenesulfonate salt] |  | < 0.1 | 0.1 to 0.35
Cc1ccc(Oc2ccc(Nc3ncnc4sc5c(c34)CCN(C(=O)/C=C/CN3CCOCC3)C5)cc2C)cn1 [Compound 17, (E)-1-(4-((3-Methyl-4-((6-methylpyridin-3-yl)oxy)phenyl)amino)-5,6-dihydropyrido[4′,3′:4,5]thieno[2,3-d]pyrimidin-7(8H)-yl)-4-morpholinobut-2-en-1-one] | 0.1 to 0.35 | < 0.1 | 
Cc1ccc(Oc2ccc(Nc3ncnc4sc5c(c34)CCN(C(=O)/C=C/CN3CC4CC(C3)O4)C5)cc2C)cn1 [Compound 15] | < 0.1 | < 0.1 | 
COc1ccc(Oc2ccc(Nc3ncnc4sc5c(c34)CN(C(=O)/C=C/CN(C)C)C5)cc2C)cn1 [Compound 128, (E)-4-(dimethylamino)-1-(4-((4-((6-methoxypyridin-3-yl)oxy)-3-methylphenyl)amino)-5,7-dihydro-6H-pyrrolo[3′,4′:4,5]thieno[2,3-d]pyrimidin-6-yl)but-2-en-1-one] | > 1 | < 0.1 | 
Cc1ccc(Oc2ccc(Nc3ncnc4sc5c(c34)CCN(C(=O)/C=C/CN(C)C)C5)cc2C)cn1 [Compound 8, (E)-4-(Dimethylamino)-1-(4-((3-methyl-4-((6-methylpyridin-3-yl)oxy)phenyl)amino)-5,6-dihydropyrido[4′,3′:4,5]thieno[2,3-d]pyrimidin-7(8H)-yl)but-2-en-1-one] | < 0.1 | < 0.1 | 

Second part, led by results:

EC50 (EGFR; [1]) [µM] | Structure (SMILES) | EC50 (HER2) [µM] | EC50 (EGFR) [µM]
> 1 | Cc1cc(Nc2ncnc3sc4c(c23)CCN(C(=O)/C=C/CN2CCOCC2)C4)ccc1Oc1ccc2ncnn2c1 [Compound 12] | < 0.1 | 
0.1 to 0.35 | Cc1ccc(Oc2ccc(Nc3ncnc4sc5c(c34)CN(C(=O)/C=C/CN(C)C)C5)cc2Cl)cn1 [Compound 129, (E)-1-(4-((3-Chloro-4-((6-methylpyridin-3-yl)oxy)phenyl)amino)-5H-pyrrolo[3′,4′:4,5]thieno[2,3-d]pyrimidin-6(7H)-yl)-4-(dimethylamino)but-2-en-1-one] | < 0.1 | 
< 0.1 | Cc1ccc(Oc2ccc(Nc3ncnc4sc5c(c34)CCN(C(=O)/C=C/CN3CC4CCC3C4)C5)cc2C)cn1 (stereo not shown) [Compound 14] | < 0.1 | 

From patent US20240391931A1 (Bristol-Myers Squibb Company, priority 2021, published 2024)
